Test results: patent publication US20240190880A1 (THE REGENTS OF THE UNIVERSITY OF MICHIGAN, priority 2021, published 2024)

What follows are compounds tested against T1, ER (Homo sapiens, UniProt P03372) (assay: ER degradation activity, in-cell western blot analysis in T47D cells). Settings: 16 hours, Table A does not say which cell line (T47D or MCF7), read-out: Potency (DC50).
T1 construct: host or cells: T47D and MCF7 human breast cancer cells
T1 sequence (P03372 1-595): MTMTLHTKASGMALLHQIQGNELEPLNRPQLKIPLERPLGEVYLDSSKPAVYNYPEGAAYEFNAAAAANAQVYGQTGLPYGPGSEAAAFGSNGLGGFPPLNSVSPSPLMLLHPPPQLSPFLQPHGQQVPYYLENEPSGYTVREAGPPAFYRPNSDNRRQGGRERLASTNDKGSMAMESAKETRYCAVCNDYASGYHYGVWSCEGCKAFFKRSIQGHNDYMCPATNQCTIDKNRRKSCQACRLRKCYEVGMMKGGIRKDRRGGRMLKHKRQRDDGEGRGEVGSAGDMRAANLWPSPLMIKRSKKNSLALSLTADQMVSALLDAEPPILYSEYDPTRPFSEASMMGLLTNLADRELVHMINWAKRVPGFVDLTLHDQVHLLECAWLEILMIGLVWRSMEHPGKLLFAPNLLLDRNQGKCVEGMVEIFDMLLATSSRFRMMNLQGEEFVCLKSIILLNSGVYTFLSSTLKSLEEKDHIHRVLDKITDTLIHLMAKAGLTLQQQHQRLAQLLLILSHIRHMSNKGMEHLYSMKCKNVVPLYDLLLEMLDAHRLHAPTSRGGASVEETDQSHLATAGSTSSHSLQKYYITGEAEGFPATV
Format: cell-based
Outline: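 Human T47D cells (DMEM, 10% FBS) are dosed for 16 h with 0.5% DMSO final and probed with 680- and 800-dye secondary antibodies. Relative ER is calculated against vehicle and untreated wells.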

Row | Structure (SMILES) | DC50
1 | O=C1CCC(N2Cc3cc4c(cc3C2=O)CN(CC(=O)N2CCC3(C2)CN(c2ccc([C@@H]5c6ccc(O)cc6CC[C@@H]5c5ccccc5)cc2)C3)C4)C(=O)N1 (mixture of isomers) [E 6, rac-3-(6-(2-(2-(4-((1R,2S)-6-hydroxy-2-phenyl-1,2,3,4-tetrahydronaphthalen-1-yl)phenyl)-2,6-diazaspiro[3.4]octan-6-yl)-2-oxoethyl)-1-oxo-3,5,6,7-tetrahydropyrrolo[3,4-f]isoindol-2(1H)-yl)piperidine-2,6-dione] | < 10 nM
2 | O=C1CCC(N2C(=O)c3cc4c(cc3C2=O)CN(CC(=O)N2CCC(n3cc(-c5ccc([C@@H]6c7ccc(O)cc7CC[C@@H]6c6ccccc6)cc5)cn3)CC2)C4)C(=O)N1 (stereo partly drawn) [E 214, 2-(2,6-dioxopiperidin-3-yl)-6-(2-(4-(4-(4-((1R,2S)-6-hydroxy-2-phenyl-1,2,3,4-tetrahydronaphthalen-1-yl)phenyl)-1H-pyrazol-1-yl)piperidin-1-yl)-2-oxoethyl)-6,7-dihydropyrrolo[3,4-f]isoindole-1,3(2H,5H)-dione] | > 100 nM
3 | O=C1CCC(N2C(=O)c3cc4c(cc3C2=O)CN(CC(=O)N2CCCC(Oc3ccc([C@@H]5c6ccc(O)cc6CC[C@@H]5c5ccccc5)cc3)C2)C4)C(=O)N1 (mixture of isomers) [E 21, Rac-2-(2,6-dioxopiperidin-3-yl)-6-(2-(3-(4-((1R,2S)-6-hydroxy-2-phenyl-1,2,3,4-tetrahydronaphthalen-1-yl)phenoxy)piperidin-1-yl)-2-oxoethyl)-6,7-dihydropyrrolo[3,4-f]isoindole-1,3(2H,5H)-dione] | > 100 nM
4 | O=C1CCC(N2C(=O)c3cc4c(cc3C2=O)CN(CC(=O)N2CC3(CC(Oc5ccc([C@@H]6c7ccc(O)cc7CC[C@H]6c6ccccc6)cc5)C3)C2)C4)C(=O)N1 (stereo partly drawn) [E 221, 2-(2,6-dioxopiperidin-3-yl)-6-(2-(6-(4-((1R,2R)-6-hydroxy-2-phenyl-1,2,3,4-tetrahydronaphthalen-1-yl)phenoxy)-2-azaspiro[3.3]heptan-2-yl)-2-oxoethyl)-6,7-dihydropyrrolo[3,4-f]isoindole-1,3(2H,5H)-dione] | > 100 nM
5 | C[C@@H]1Cc2c([nH]c3ccccc23)[C@@H](c2c(F)cc(N3CCC(CN4Cc5cc6c(cc5C4)C(=O)N(C4CCC(=O)NC4=O)C6=O)CC3)cc2F)N1CC(F)F (stereo partly drawn) [E 89, 6-((1-(4-((1R,3R)-2-(2,2-difluoroethyl)-3-methyl-2,3,4,9-tetrahydro-1H-pyrido[3,4-b]indol-1-yl)-3,5-difluorophenyl)piperidin-4-yl)methyl)-2-(2,6-dioxopiperidin-3-yl)-6,7-dihydropyrrolo[3,4-f]isoindole-1,3(2H,5H)-dione] | > 100 nM
6 | O=C1CCC(N2C(=O)c3cc4c(cc3C2=O)CN(C(=O)CN2CCC3(CC2)CCN(c2ccc(C(=C(CCCl)c5ccccc5)c5ccc(O)cc5)cc2)C3)C4)C(=O)N1 (stereo not shown) [E 191, 6-(2-(2-(4-(4-chloro-1-(4-hydroxyphenyl)-2-phenylbut-1-en-1-yl)phenyl)-2,8-diazaspiro[4.5]decan-8-yl)acetyl)-2-(2,6-dioxopiperidin-3-yl)-6,7-dihydropyrrolo[3,4-f]isoindole-1,3(2H,5H)-dione] | 10 to 100 nM
7 | C[C@@H]1Cc2c([nH]c3ccccc23)[C@@H](c2c(F)cc(N3CCC(C(=O)N4CCC(N5Cc6cc7c(cc6C5)C(=O)N(C5CCC(=O)NC5=O)C7=O)CC4)CC3)cc2F)N1CC(F)(F)F (stereo partly drawn) [E 228, 6-(1-(1-(3,5-difluoro-4-((1R,3R)-3-methyl-2-(2,2,2-trifluoroethyl)-2,3,4,9-tetrahydro-1H-pyrido[3,4-b]indol-1-yl)phenyl)piperidine-4-carbonyl)piperidin-4-yl)-2-(2,6-dioxopiperidin-3-yl)-6,7-dihydropyrrolo[3,4-f]isoindole-1,3(2H,5H)-dione] | 10 to 100 nM
8 | O=C1CCC(N2C(=O)c3cc4c(cc3C2=O)CN(CC(=O)N2CC3(CCN(c5ccc([C@@H]6c7ccc(O)cc7CC[C@@H]6c6ccccc6)cc5)CC3)C2)CC4)C(=O)N1 (mixture of isomers) [E 163, rac-2-(2,6-dioxopiperidin-3-yl)-6-(2-(7-(4-((1R,2S)-6-hydroxy-2-phenyl-1,2,3,4-tetrahydronaphthalen-1-yl)phenyl)-2,7-diazaspiro[3.5]nonan-2-yl)-2-oxoethyl)-5,6,7,8-tetrahydro-1H-pyrrolo[3,4-g]isoquinoline-1,3(2H)-dione] | 10 to 100 nM
9 | O=C1CCC(N2C(=O)c3cc4c(cc3C2=O)CN(CC(=O)N2CCC3(CC2)CCN(c2ccc([C@@H]5c6ccc(O)cc6CC[C@@H]5C5CCCCC5)cc2)CC3)C4)C(=O)N1 (mixture of isomers) [E 177, Rac-6-(2-(9-(4-((1R,2R)-2-cyclohexyl-6-hydroxy-1,2,3,4-tetrahydronaphthalen-1-yl)phenyl)-3,9-diazaspiro[5.5]undecan-3-yl)-2-oxoethyl)-2-(2,6-dioxopiperidin-3-yl)-6,7-dihydropyrrolo[3,4-f]isoindole-1,3(2H,5H)-dione] | 10 to 100 nM

The next lines start with the values.

Row | DC50 | Structure (SMILES)
10 | > 100 nM | C[C@@H]1Cc2c([nH]c3ccccc23)[C@@H](c2c(F)cc(N3CCC(C(=O)N4CC(N5Cc6cc7c(cc6C5)C(=O)N(C5CCC(=O)NC5=O)C7=O)C4)CC3)cc2F)N1CC(F)F (stereo partly drawn) [E 235, 6-(1-(1-(4-((1R,3R)-2-(2,2-difluoroethyl)-3-methyl-2,3,4,9-tetrahydro-1H-pyrido[3,4-b]indol-1-yl)-3,5-difluorophenyl)piperidine-4-carbonyl)azetidin-3-yl)-2-(2,6-dioxopiperidin-3-yl)-6,7-dihydropyrrolo[3,4-f]isoindole-1,3(2H,5H)-dione]
11 | > 100 nM | C[C@@H]1Cc2c([nH]c3ccccc23)[C@@H](c2c(F)cc(N3CCC(CN4CC(C(=O)N5Cc6cc7c(cc6C5)C(=O)N(C5CCC(=O)NC5=O)C7=O)C4)CC3)cc2F)N1CC(F)F (stereo partly drawn) [E 239, 6-(1-((1-(4-((1R,3R)-2-(2,2-difluoroethyl)-3-methyl-2,3,4,9-tetrahydro-1H-pyrido[3,4-b]indol-1-yl)-3,5-difluorophenyl)piperidin-4-yl)methyl)azetidine-3-carbonyl)-2-(2,6-dioxopiperidin-3-yl)-6,7-dihydropyrrolo[3,4-f]isoindole-1,3(2H,5H)-dione]
12 | > 100 nM | C[C@@H]1Cc2c([nH]c3ccccc23)[C@@H](c2c(F)cc(C3CCC(CN4CCC(N5Cc6cc7c(cc6C5)C(=O)N(C5CCC(=O)NC5=O)C7=O)CC4)CC3)cc2F)N1CC(F)F (stereo partly drawn) [E 282, 6-(1-((4-(4-((1R,3R)-2-(2,2-difluoroethyl)-3-methyl-2,3,4,9-tetrahydro-1H-pyrido[3,4-b]indol-1-yl)-3,5-difluorophenyl)cyclohexyl)methyl)piperidin-4-yl)-2-(2,6-dioxopiperidin-3-yl)-6,7-dihydropyrrolo[3,4-f]isoindole-1,3(2H,5H)-dione]
13 | > 100 nM | O=C1CCC(N2C(=O)c3cc4c(cc3C2=O)CN(C2CCN(C(=O)C3CCN(c5ccc([C@@H]6c7ccc(O)cc7CC[C@@H]6c6ccccc6)cc5)CC3)CC2)C4)C(=O)N1 (stereo partly drawn) [E 240, 2-(2,6-dioxopiperidin-3-yl)-6-(1-(1-(4-((1R,2S)-6-hydroxy-2-phenyl-1,2,3,4-tetrahydronaphthalen-1-yl)phenyl)piperidine-4-carbonyl)piperidin-4-yl)-6,7-dihydropyrrolo[3,4-f]isoindole-1,3(2H,5H)-dione]
14 | > 100 nM | C[C@@H]1Cc2c([nH]c3ccccc23)[C@@H](c2c(F)cc(C3CCN(C[C@H]4CC[C@H](N5Cc6cc7c(cc6C5)C(=O)N(C5CCC(=O)NC5=O)C7=O)CC4)CC3)cc2F)N1CC(F)F (stereo partly drawn) [E 366, 6-((1R,4r)-4-((4-(4-((1R,3R)-2-(2,2-difluoroethyl)-3-methyl-2,3,4,9-tetrahydro-1H-pyrido[3,4-b]indol-1-yl)-3,5-difluorophenyl)piperidin-1-yl)methyl)cyclohexyl)-2-(2,6-dioxopiperidin-3-yl)-6,7-dihydropyrrolo[3,4-f]isoindole-1,3(2H,5H)-dione]
15 | 10 to 100 nM | O=C1CCC(N2C(=O)c3cc4c(cc3C2=O)CN(CCN2CCC3(CC2)CN(c2ccc([C@@H]5c6ccc(O)cc6CC[C@@H]5c5ccccc5)cc2)C3)C4)C(=O)N1 (mixture of isomers) [E 266, rac-2-(2,6-dioxopiperidin-3-yl)-6-(2-(2-(4-((1R,2S)-6-hydroxy-2-phenyl-1,2,3,4-tetrahydronaphthalen-1-yl)phenyl)-2,7-diazaspiro[3.5]nonan-7-yl)ethyl)-6,7-dihydropyrrolo[3,4-f]isoindole-1,3(2H,5H)-dione]

Same assay, conditions: compounds 16 hours, Table A does not say whether T47D or MCF7, read-out: Potency (DC50)

Row | Structure (SMILES) | DC50
16 | C[C@@H]1Cc2c([nH]c3ccccc23)[C@@H](c2cnc(N3CCC4(CC3)CC(CN3Cc5cc6c(cc5C3)C(=O)N(C3CCC(=O)NC3=O)C6=O)C4)nc2)N1CC(C)(C)F (stereo partly drawn) [E 473, 2-(2,6-dioxopiperidin-3-yl)-6-((7-(5-((1R,3R)-2-(2-fluoro-2-methylpropyl)-3-methyl-2,3,4,9-tetrahydro-1H-pyrido[3,4-b]indol-1-yl)pyrimidin-2-yl)-7-azaspiro[3.5]nonan-2-yl)methyl)-6,7-dihydropyrrolo[3,4-f]isoindole-1,3(2H,5H)-dione] | 10 to 100 nM
